# According to article PMC5469451, “Identification of compounds that suppress Toxoplasma gondii tachyzoites and bradyzoites” (PLoS ONE, 2017):
# Where two headings read alike, the source gives them in different places.
# Experiments:
# [1] = tested on: PLK/DLUC_1C9 tachyzoites in Vero cells; test: Primary screening: T. gondii growth assay, Renilla luciferase; type: cell-based, Toxoplasma gondii; conditions: 48 h; for inhibition at 10 µM: Toxoplasma gondii, read-out: Parasite Inhibition (%)
# Procedure: In the primary screening, purified PLK/DLULC_1C9 tachyzoites were incubated with Vero cells at a multiplicity of infection (MOI) of 0.5. After a 2-h incubation, the infected host cells were trypsinized to obtain a cell suspension and then these suspended infected cells were inoculated into 96-well optical bottom plates containing the compound library. Each well was inoculated with 2500 cells in 25 μL of culture medium. […] Following cell inoculation, each well therefore contained 0.5% DMSO and 10 μM compound. After 48 h of culture, Renilla luciferase activity was measured by using Renilla-Glo (Promega, WI, USA) following the manufacturer’s instructions. […] The Z’-value for each plate was calculated from the Renilla luciferase activity in the negative and positive control wells.
# [2] = Host cell cytotoxicity assay (Cell-Titer Glo), HFF cells; type: cell-based, human; conditions: human, Host cell viability (%)
# Procedure: (§1) Vero cells and HFF cells were both used as host cells because both cell types were used for the parasite screening. After incubation for 48 h in DMEM supplemented with 5% FBS, L-glutamine, penicillin, and streptomycin, cell viabilities were measured by using a Cell-Titer Glo kit (Promega) following the manufacturer’s instructions. Control wells were treated with DMSO alone in culture medium to calculate the 100% viability for each cell type.
# [3] = tested on: RH-2F tachyzoites (type I strain) in HFF cells; test: Confirmatory screening: RH-2F β-galactosidase growth assay in HFF cells; type: cell-based, Toxoplasma gondii; conditions: 48 h, 48 h; for inhibition at 2.5 µM / inhibition at 25 µM: Toxoplasma gondii, read-out: Parasite inhibition (%)
# Procedure: In the confirmatory screening, we utilize an RH strain β-galactosidase reporter parasite termed RH-2F (a type I strain). Briefly, RH-2F parasites were purified from freshly lysed infected host cells and used to infect confluent HFF cells cultured in 96-well plates. Five hundred parasites were added to each well, along with each test compound and 50 μL of culture medium. Plates were then incubated for 10 min at room temperature followed by an incubation at 37°C for 48 h in a CO2 incubator.
# To measure the effects of tanshinone IIA and hydroxyzine on intracellular parasite growth, parasites were allowed to invade for 2 h, uninvaded parasites were washed away, and medium with compounds was added. After 48 h, the plates were frozen at -80°C. Plates were then thawed just prior to the measurement of beta-galactosidase activity. Beta-Glo (Promega) was used to measure β-galactosidase activity following the manufacturer’s instructions.
# [4] = Host cell cytotoxicity assay (Cell-Titer Glo), Vero cells; type: cell-based; conditions: African green monkey; for viability at 10 µM: 48 h, Vero cells, DMSO = 100%, read-out: Host Viability (%)
# Procedure: as §1, with “Host cells were treated with compounds at the same concentration used for screening (i.e., 0.5% DMSO and 10 μM compound). Vero” for “Vero”
# HFF cells = test: Host cell cytotoxicity assay (Cell-Titer Glo), HFF cells; type: cell-based, human
# Procedure: as §1
# Vero cells = test: Host cell cytotoxicity assay (Cell-Titer Glo), Vero cells; type: cell-based
# Procedure: as §1, with “Host cells were treated with compounds at the same concentration used for screening (i.e., 0.5% DMSO and 10 μM compound). Vero” for “Vero”
# [5] = 10 μM, PLK/DLUC_1C9 in Vero cells, DMSO = 0%, 10 μM pyrimethamine = 100%
# [6] = HFF, 2.5 μM, RH-2F in HFF, compared with 10 μM pyrimethamine
# [7] = 25 μM, RH-2F in HFF, compared with 10 μM pyrimethamine
# [8] = 2.5 μM, RH-2F in HFF, compared with 10 μM pyrimethamine
compound,measurement,setting,value
OCCN1CCN(CCCN2c3ccccc3Sc3ccc(Cl)cc32)CC1 [Perphenazine],inhibition at 10 µM,[1]; [5],104%
same,"viability at 48 h, 2.5 µM",[2],95%
same,"viability at 48 h, 25 µM",[2],65%
same,inhibition at 2.5 µM,[3]; [6],-6.8%
same,inhibition at 25 µM,[3]; [7],112%
same,"viability at 48 h, 10 µM",[4],84%
OC(c1cc(C(F)(F)F)nc2c(C(F)(F)F)cccc12)C1CCCCN1 (centres unmarked) [Mefloquine],inhibition at 10 µM,[1]; [5],101%
same,"viability at 48 h, 2.5 µM",[2],94%
same,"viability at 48 h, 25 µM",[2],48%
same,inhibition at 2.5 µM,[3]; [8],6.5%
same,inhibition at 25 µM,[3]; [7],113%
same,"viability at 48 h, 10 µM",[4],87%
Clc1ccccc1C(c1ccccc1)(c1ccccc1)n1ccnc1 [Clotrimazol],inhibition at 10 µM,[1]; [5],99%
same,"viability at 48 h, 10 µM",[4],94%
CCN(CC)CCNc1ccc(CO)c2sc3ccccc3c(=O)c12 [Hycanthone],inhibition at 10 µM,[1]; [5],97%
same,"viability at 48 h, 10 µM",[4],82%
Nc1ccccc1NC(=O)c1ccc(CNC(=O)OCc2cccnc2)cc1 [Entinostat],inhibition at 10 µM,[1]; [5],91%
same,"viability at 48 h, 2.5 µM",[2],92%
same,"viability at 48 h, 25 µM",[2],91%
same,inhibition at 2.5 µM,[3]; [6],-20%
same,inhibition at 25 µM,"[3]; HFF, 25 μM, RH-2F in HFF, compared with 10 μM pyrimethamine",60%
same,"viability at 48 h, 10 µM",[4],83%
CC(C)(C)c1ccc(C(O)CCCN2CCC(C(O)(c3ccccc3)c3ccccc3)CC2)cc1 (racemic) [(±)-Terfenadine],Parasite inhibition (%),[1]; [5],104%
same,Host cell viability (%),HFF cells; 2.5 µM,96%
same,Host cell viability (%),HFF cells; 25 µM,0.1%
same,Parasite inhibition (%),[3]; [8],-12%
same,Parasite inhibition (%),[3]; [7],96%
same,Host Viability (%),Vero cells; 10 µM,85%
COc1ccc2[nH]c([S+]([O-])Cc3ncc(C)c(OC)c3C)nc2c1 (centres unmarked) [Omeprazole],inhibition at 10 µM,[1]; Vero,92%
same,"viability at 48 h, 2.5 µM",[2],100%
same,"viability at 48 h, 25 µM",[2],100%
same,inhibition at 2.5 µM,[3]; HFF,4.3%
same,inhibition at 25 µM,[3]; HFF,44%
same,"viability at 48 h, 10 µM",[4],97%
CCCCC/C=C\C/C=C\C/C=C\C/C=C\CCCC(=O)Nc1ccc(O)cc1 [AM404],Parasite inhibition (%),[1]; [5],103%
same,Host cell viability (%),"HFF cells; 2.5 μM, 48 h, HFF cells",93%
same,Host cell viability (%),"HFF cells; 25 μM, 48 h, HFF cells, compared with DMSO",86%
same,Parasite inhibition (%),[3]; [8],-11%
same,Parasite inhibition (%),[3]; [7],59%
same,Host Viability (%),"Vero cells; 10 μM, 48 h, Vero cells, DMSO = 100%",100%
PENITREM A,Parasite inhibition (%),[1]; [5],105%
same,Parasite inhibition (%),[3]; [8],6.0%
same,Parasite inhibition (%),[3]; [7],110%
COc1ccc(S(=O)(=O)N(CC(=O)NO)CC(C)C)cc1 [N-Hydroxy-N2-isobutyl-N2-[(4-methoxyphenyl)sulfonyl]glycinamide],inhibition at 10 µM,[1]; Vero,101%
same,viability at 10 µM,[4],98%
Clc1ccc(C(Cn2ccnc2)OCc2c(Cl)cccc2Cl)c(Cl)c1 (centres unmarked) [Isoconazole],inhibition at 10 µM,[1]; [5],104%
same,viability at 10 µM,[4],101%
